According to ChEMBL document CHEMBL5727981, “ASK1 inhibitor and preparation method and use thereof” (2020):
pIC50: −log10 of the molar value.

Molecular target: T1, Mitogen-activated protein kinase kinase kinase 5 (Homo sapiens, UniProt Q99683)
T1 sequence (Q99683 whole entry): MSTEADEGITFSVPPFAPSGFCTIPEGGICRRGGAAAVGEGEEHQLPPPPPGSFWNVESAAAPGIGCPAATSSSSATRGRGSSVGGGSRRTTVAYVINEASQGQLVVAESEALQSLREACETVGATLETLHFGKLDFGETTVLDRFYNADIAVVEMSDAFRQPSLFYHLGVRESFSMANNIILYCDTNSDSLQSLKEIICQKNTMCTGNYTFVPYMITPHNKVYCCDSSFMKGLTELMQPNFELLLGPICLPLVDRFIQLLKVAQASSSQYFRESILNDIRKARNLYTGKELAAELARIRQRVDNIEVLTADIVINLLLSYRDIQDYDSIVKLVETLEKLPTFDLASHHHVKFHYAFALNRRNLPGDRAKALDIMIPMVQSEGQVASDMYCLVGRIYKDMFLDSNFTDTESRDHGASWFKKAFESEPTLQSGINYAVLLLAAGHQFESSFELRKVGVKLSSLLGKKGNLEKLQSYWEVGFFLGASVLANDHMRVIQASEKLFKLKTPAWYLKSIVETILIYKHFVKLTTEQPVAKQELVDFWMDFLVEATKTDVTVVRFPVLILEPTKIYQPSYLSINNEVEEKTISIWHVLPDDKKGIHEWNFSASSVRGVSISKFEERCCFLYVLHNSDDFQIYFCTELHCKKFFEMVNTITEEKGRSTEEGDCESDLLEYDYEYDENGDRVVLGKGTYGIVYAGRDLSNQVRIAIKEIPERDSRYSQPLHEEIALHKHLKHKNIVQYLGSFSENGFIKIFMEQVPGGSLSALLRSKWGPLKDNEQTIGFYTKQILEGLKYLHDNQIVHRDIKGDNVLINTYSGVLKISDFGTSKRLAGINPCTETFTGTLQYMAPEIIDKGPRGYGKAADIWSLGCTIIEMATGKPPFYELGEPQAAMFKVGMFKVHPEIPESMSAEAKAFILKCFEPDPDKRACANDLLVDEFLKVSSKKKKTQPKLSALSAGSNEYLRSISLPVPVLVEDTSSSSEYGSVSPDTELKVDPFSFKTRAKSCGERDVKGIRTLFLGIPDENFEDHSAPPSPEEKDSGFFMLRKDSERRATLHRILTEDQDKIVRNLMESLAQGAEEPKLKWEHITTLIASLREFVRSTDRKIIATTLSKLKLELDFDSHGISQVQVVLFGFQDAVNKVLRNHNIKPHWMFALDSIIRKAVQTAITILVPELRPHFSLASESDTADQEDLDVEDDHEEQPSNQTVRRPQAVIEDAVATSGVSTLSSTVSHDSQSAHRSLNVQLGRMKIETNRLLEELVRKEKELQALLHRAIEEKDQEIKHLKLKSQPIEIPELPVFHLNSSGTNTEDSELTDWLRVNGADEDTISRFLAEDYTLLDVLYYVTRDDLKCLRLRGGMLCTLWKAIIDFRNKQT
Assay: In Vitro Enzyme Activity: Reagents:Base Reaction Buffer: 20 mM Hepes (pH 7.5), 10 mM MgCl2, 1 mM EGTA, 0.02% Brij35, 0.02 mg/ml BSA, 0.1 mM Na3VO4, 2 mM DTT, 1% DMSOCompound Treatment:The test compound was formulated into a 10 mM stock solution in DMSO, which was diluted into 10 concentrations in 3-fold degression, and placed in a 384-well plate (Cyclic Olefin Copolymer LDV Echo®).Kinase Name: ASK1/MAP3K5 (Invitrogen, Carlsbad, Calif.)Type: Recombinant Human Full Length Protein, GST-taggedFinal concentration of the enzyme: 20 nMSubstrate: Myelin basic protein, MBP (Active Motif, Carlsbad, Calif.)Final concentration of the substrate: 20 μMExperimental Operations:1. The substrate was dissolved in a freshly prepared base reaction buffer.2. A desired coenzyme was added to the above substrate solution.3. The kinase was added to the substrate solution and mixed slowly.4. The solution of the test compound in DMSO was added to the kinase reaction solution and incubated at room temperature for 20 minutes.5. 33P-ATP (specific activity of 10 μCi/μl) was added to the reaction solution to initiate the reaction.6. Incubated at room temperature for 2 hours.7. A small portion of the reactants was placed onto a P-81 ion exchange filter paper.8. The filter paper was washed three times with 0.75% phosphate buffer to wash off the unbound phosphate, and then the filter paper was dried.9. The radioactivity remaining on the filter paper was determined.10. Kinase activity data was expressed as the ratio of the kinase activity remaining in the test sample to the kinase activity in the vehicle (DMSO).

| Compound | pIC50 |
| --- | --- |
| CCc1cn(-c2cc3c(=O)n(-c4cccc(-c5nncn5C(C)C)n4)cnc3cc2C)cn1 | > 7.30 |
| CC(C)n1cnnc1-c1cccc(N2CCc3cc(Cl)c(-n4cnc(C5CC5)c4)cc3C2=O)n1 | > 7.30 |
| CC(C)c1cc2ncn(-c3cccc(-c4nncn4C(C)C)n3)c(=O)c2cc1-n1cnc(C2CC2)c1 | > 7.30 |
